Experimental data as given in patent publication US12037344B2, “NLRP3 modulators” (INNATE TUMOR IMMUNITY, INC., priority 2018, dated 2024).

Experiments:
TLR8 = biological target: T1, TLR8 (Homo sapiens, UniProt Q9NR97); assay: In vitro human TLR8 binding reporter assay (HEK-Blue, NF-kB/AP1-inducible SEAP); assay type: cell-based; details: activity range, read-out: TLR8 Agonist EC50
T1 construct: human HEK-Blue cells co-expressing a TLR7 or TLR8 gene
T1 sequence (Q9NR97 27-1041): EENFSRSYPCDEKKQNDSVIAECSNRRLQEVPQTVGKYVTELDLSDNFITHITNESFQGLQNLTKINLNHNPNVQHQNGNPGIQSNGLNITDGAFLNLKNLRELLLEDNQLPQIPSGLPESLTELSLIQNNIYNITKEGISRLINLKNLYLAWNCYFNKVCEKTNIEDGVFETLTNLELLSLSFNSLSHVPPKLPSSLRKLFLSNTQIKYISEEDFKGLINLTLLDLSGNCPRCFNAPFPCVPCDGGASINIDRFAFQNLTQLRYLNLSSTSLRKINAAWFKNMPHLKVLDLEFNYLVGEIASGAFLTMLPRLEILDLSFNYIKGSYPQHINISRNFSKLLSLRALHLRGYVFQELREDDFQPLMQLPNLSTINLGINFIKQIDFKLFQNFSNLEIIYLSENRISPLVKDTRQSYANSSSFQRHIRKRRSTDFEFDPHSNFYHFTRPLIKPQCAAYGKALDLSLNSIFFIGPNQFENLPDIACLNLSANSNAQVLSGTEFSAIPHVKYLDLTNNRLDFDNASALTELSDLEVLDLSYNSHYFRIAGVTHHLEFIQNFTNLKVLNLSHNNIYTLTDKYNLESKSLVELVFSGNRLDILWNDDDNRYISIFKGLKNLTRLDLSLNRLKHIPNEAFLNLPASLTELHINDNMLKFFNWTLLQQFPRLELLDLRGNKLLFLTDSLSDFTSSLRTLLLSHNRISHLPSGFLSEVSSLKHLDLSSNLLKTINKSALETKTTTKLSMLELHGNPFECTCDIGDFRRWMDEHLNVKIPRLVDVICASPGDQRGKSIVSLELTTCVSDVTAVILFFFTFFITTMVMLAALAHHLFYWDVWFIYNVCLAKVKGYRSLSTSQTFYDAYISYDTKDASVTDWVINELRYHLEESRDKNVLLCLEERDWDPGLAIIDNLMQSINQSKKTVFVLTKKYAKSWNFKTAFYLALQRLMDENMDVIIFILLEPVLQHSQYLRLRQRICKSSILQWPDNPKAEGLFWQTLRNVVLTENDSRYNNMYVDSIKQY
Procedure, shortened: (§1)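 Cells are seeded and grown for 24 h. Compounds or DMSO are then added and incubated 18 h at 37 °C. Quanti-Blue is added, and SEAP is read after thirty minutes. EC50 values are normalized, with RLU from 50 μM reference standard setting 100% Ymax.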

THP-1 cells = assay: Measurement of IL-1β production, hTRF protocol (second alternative procedure), THP-1 cells; assay type: cell-based, human; details: Homo sapiens, THP-1, IL-1β production, human cells; read-out: NLRP3 hILIB EC50
Procedure, shortened: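 Compounds, dilution series starting at a final 10 μM, were incubated 2 hours at 37° C with PMA-differentiated THP-1 cells (50 ng/ml overnight; 50,000 cells/well, 2% FBS RPMI). Released IL-1β quantified in supernatant by hTRF kit with 1:40 antibody dilution, 4° C overnight, 665/615 nm ratio.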

TLR7 = biological target: T2, TLR7 (Homo sapiens, UniProt Q9NYK1); assay: In vitro human TLR7 binding reporter assay (HEK-Blue, NF-kB/AP1-inducible SEAP); assay type: cell-based; details: activity range, read-out: TLR7 Agonist EC50
T2 construct: human HEK-Blue cells co-expressing a TLR7 or TLR8 gene
T2 sequence (Q9NYK1 27-1049): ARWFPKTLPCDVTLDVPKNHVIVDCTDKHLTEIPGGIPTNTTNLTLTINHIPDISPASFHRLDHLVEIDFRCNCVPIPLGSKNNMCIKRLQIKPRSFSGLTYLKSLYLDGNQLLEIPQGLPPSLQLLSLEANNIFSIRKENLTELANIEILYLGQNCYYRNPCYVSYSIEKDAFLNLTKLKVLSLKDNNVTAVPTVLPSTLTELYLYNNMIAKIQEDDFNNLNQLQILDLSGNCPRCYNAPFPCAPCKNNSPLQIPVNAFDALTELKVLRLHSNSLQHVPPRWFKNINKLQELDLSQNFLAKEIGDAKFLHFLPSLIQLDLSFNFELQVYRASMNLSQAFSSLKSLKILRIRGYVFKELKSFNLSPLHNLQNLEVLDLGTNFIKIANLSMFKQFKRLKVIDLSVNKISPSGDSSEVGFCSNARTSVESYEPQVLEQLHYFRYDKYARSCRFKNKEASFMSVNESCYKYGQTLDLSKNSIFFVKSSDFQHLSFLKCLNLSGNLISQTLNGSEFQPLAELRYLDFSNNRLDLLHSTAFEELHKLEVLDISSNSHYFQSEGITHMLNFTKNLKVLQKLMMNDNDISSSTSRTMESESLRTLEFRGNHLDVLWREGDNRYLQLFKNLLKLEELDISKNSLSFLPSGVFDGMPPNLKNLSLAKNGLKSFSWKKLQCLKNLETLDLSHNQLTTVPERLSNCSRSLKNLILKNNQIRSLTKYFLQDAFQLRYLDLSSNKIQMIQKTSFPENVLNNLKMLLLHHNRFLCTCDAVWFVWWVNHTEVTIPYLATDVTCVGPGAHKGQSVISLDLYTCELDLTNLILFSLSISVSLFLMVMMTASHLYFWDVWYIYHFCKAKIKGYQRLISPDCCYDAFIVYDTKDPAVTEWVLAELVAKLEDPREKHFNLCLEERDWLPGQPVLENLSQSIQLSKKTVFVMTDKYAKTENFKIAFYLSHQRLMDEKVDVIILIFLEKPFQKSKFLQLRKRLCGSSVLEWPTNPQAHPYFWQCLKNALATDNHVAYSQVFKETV
Procedure, shortened: as §1

SMILES	EC50 (TLR8) [µM]	EC50 (THP-1 cells) [µM]	EC50 (TLR7) [µM]
CC(C)(Cn1cc2c(N)nc3cc(-c4ccn[nH]4)ccc3c2n1)C(=O)N1CCOCC1 [Example 591]	> 100	17	> 100
CN(C)C(=O)C(C)(C)Cn1cc2c(N)nc3cc(-c4ccn[nH]4)ccc3c2n1 [Example 592]	> 100	0.68	> 100
CC(C)(Cn1cc2c(N)nc3cc(-c4ccn[nH]4)ccc3c2n1)C(=O)N1CC(O)C1 [Example 597]	> 100	8.7	> 100
CC(C)(Cn1cc2c(N)nc3cc(-c4ccn[nH]4)ccc3c2n1)C(=O)NC1CCC1 [Example 598]	> 100	1.98	> 100
CC(C)(Cn1cc2c(N)nc3cc(-c4ccn[nH]4)ccc3c2n1)C(=O)N1CC(F)(F)C1 [Example 599]	> 100	2.18	> 100
CC(C)(Cn1cc2c(N)nc3cc(-c4ccn[nH]4)ccc3c2n1)C(=O)NCc1cccnc1 [Example 601]	> 100	32.4	> 100
CC(C)(Cn1cc2c(N)nc3cc(-c4ccn[nH]4)ccc3c2n1)C(=O)NCC1CCOCC1 [Example 602]	> 100	21.2	> 100
Nc1nc2cc(-c3ccn[nH]3)ccc2c2nn(CC3(C(=O)NCc4ccccn4)CC3)cc12 [Example 605]	> 100	22.4	> 100
Nc1nc2cc(-c3ccn[nH]3)ccc2c2nn(CC3(C(=O)NCC(F)F)CC3)cc12 [Example 606]	> 100	2.46	> 100
Nc1nc2cc(-c3ccn[nH]3)ccc2c2nn(CC3(C(=O)N4CCCC4)CC3)cc12 [Example 607]	> 100	13.4	> 100
CNC(=O)C1(Cn2cc3c(N)nc4cc(-c5ccn[nH]5)ccc4c3n2)CC1 [Example 608]	> 100	0.7	> 100
COC1CCN(C(=O)C(C)(C)Cn2cc3c(N)nc4cc(-c5ccn[nH]5)ccc4c3n2)CC1 [Example 610]	> 100	4.41	> 100
CC(C)(Cn1cc2c(N)nc3cc(-c4ccn[nH]4)ccc3c2n1)C(=O)NCc1ccccn1 [Example 611]	> 100	9.94	> 100
CNC(=O)C(C)Cn1cc2c(N)nc3cc(-c4cc[nH]n4)ccc3c2n1 (stereo not drawn) [Example 612]	> 100	0.43	> 100
CC(Cn1cc2c(N)nc3cc(-c4cc[nH]n4)ccc3c2n1)C(=O)N1CC(O)C1 (stereo not drawn) [Example 613]	> 100	23.4	> 100
CC(C)NC(=O)C(C)Cn1cc2c(N)nc3cc(-c4cc[nH]n4)ccc3c2n1 (stereo not drawn) [Example 614]	> 100	11.6	> 100
CC(C)NC(=O)CC(C)n1cc2c(N)nc3cc(-c4cc[nH]n4)ccc3c2n1 (stereo not drawn) [Example 615]	> 100	10.4	> 100
CC(CC(=O)N1CCOCC1)n1cc2c(N)nc3cc(-c4cc[nH]n4)ccc3c2n1 (stereo not drawn) [Example 616]	> 100	9.56	> 100
CC(CC(=O)N(C)C)n1cc2c(N)nc3cc(-c4cc[nH]n4)ccc3c2n1 (stereo not drawn) [Example 617]	> 100	3.88	> 100
CC(CC(=O)NCC(F)F)n1cc2c(N)nc3cc(-c4cc[nH]n4)ccc3c2n1 (stereo not drawn) [Example 618]	> 100	14.5	> 100
CC(CC(=O)NCCCO)n1cc2c(N)nc3cc(-c4cc[nH]n4)ccc3c2n1 (stereo not drawn) [Example 619]	> 100	19.7	> 100
CC(CC(=O)NCCO)n1cc2c(N)nc3cc(-c4cc[nH]n4)ccc3c2n1 (stereo not drawn) [Example 620]	> 100	28.6	> 100
CNC(=O)CC(C)n1cc2c(N)nc3cc(-c4cc[nH]n4)ccc3c2n1 (stereo not drawn) [Example 621]	> 100	1.86	> 100
CC(CC(=O)NC1CCC1)n1cc2c(N)nc3cc(-c4cc[nH]n4)ccc3c2n1 (stereo not drawn) [Example 622]	> 100	7.28	> 100

Next, values leading:

EC50 (TLR8) [µM]	EC50 (THP-1 cells) [µM]	EC50 (TLR7) [µM]	SMILES
> 100	2.39	> 100	Nc1nc2cc(-c3ccn[nH]3)ccc2c2nn(CCCNS(=O)(=O)c3ccccc3)cc12 [Example 587]
> 100	10.9	> 100	CC(C)S(=O)(=O)NCCCn1cc2c(N)nc3cc(-c4ccn[nH]4)ccc3c2n1 [Example 588]
> 100	2.62	> 100	Nc1nc2cc(-c3ccn[nH]3)ccc2c2nn(CCCNS(=O)(=O)C3CC3)cc12 [Example 589]
> 100	1.2	> 100	Nc1nc2cc(-c3ccn[nH]3)ccc2c2nn(CCNS(=O)(=O)C3CC3)cc12 [Example 590]
> 100	28.1	> 100	Nc1nc2cc(-c3ccn[nH]3)ccc2c2nn(CCNS(=O)(=O)N3CCOCC3)cc12 [Example 593]
> 100	7.94	> 100	CC(C)(Cn1cc2c(N)nc3cc(-c4ccn[nH]4)ccc3c2n1)C(=O)NCCO [Example 594]
> 100	12.9	> 100	Nc1nc2cc(-c3ccn[nH]3)ccc2c2nn(CCCNS(=O)(=O)c3cccnc3)cc12 [Example 595]
> 100	10.1	> 100	CC(C)(Cn1cc2c(N)nc3cc(-c4ccn[nH]4)ccc3c2n1)C(=O)NCC(F)F [Example 596]
> 100	3.99	> 100	CN(C)C(=O)C1(Cn2cc3c(N)nc4cc(-c5ccn[nH]5)ccc4c3n2)CC1 [Example 600]
> 100	3.05	> 100	CC(C)NC(=O)C(C)(C)Cn1cc2c(N)nc3cc(-c4ccn[nH]4)ccc3c2n1 [Example 603]
> 100	0.85	> 100	CC(C)(Cn1cc2c(N)nc3cc(-c4ccn[nH]4)ccc3c2n1)C(N)=O [Example 604]
> 100	18.1	> 100	CC(C)(Cn1cc2c(N)nc3cc(-c4ccn[nH]4)ccc3c2n1)C(=O)NCCS(C)(=O)=O [Example 609]
